The values below come from PubChem BioAssay (NCI).

Test systems include HOP-18 NSCLC; MOLT-4 leukemia; M14 melanoma; NCI-H23 lung; SR leukemia; UACC-257 melanoma; SF-539 CNS; KM12 colon; SNB-78 CNS; SK-MEL-28 melanoma; ACHN renal.
Common to all, as to experiment: growth of human tumour cells (NCI), 48 h

SMILES strings stand for the structures.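 These data come from cells grown in 96-well plates and exposed to compound for 48 hours at five concentrations. GI50 marks 50% less growth. Definition used: TGI = concentration required for complete inhibition of growth.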

As to `COC(=O)C1=C(C(=O)OC)SC(=CC#CC=C2SC(C(=O)OC)=C(C(=O)OC)S2)S1`, the TGI was 45.9 µM in the assay with HOP-18 NSCLC; > 100 µM in the assay with MOLT-4 leukemia; > 76.2 µM in the assay with M14 melanoma; 17.8 µM in the assay with NCI-H23 lung; > 100 µM in the assay on SR leukemia; > 100 µM in the assay with UACC-257 melanoma. The TGI in the assay on SF-539 CNS was 4.86 µM; with KM12 colon, > 100 µM; with SNB-78 CNS, 48.6 µM; in the assay with SK-MEL-28 melanoma, > 63.2 µM; with ACHN renal it was 34.6 µM.
As for `CCC1=C(C(C)=O)[C@@H]2CCCCC[C@@H](C(=O)OC)C2C1=O` (some centres not stated), the TGI in the assay on HOP-18 NSCLC, in the assay with MOLT-4 leukemia, with M14 melanoma, in the assay with NCI-H23 lung, in the assay with SR leukemia and with UACC-257 melanoma was > 100 µM each time. Also, the TGI in the assay on SF-539 CNS, with KM12 colon, in the assay with SNB-78 CNS, with SK-MEL-28 melanoma and with ACHN renal was > 100 µM throughout.
Take `CC(C)N1CC2CC(CN(C(=O)c3ccccc3)C2)C1`: the TGI with HOP-18 NSCLC, in the assay on MOLT-4 leukemia, in the assay with M14 melanoma, in the assay with NCI-H23 lung, with UACC-257 melanoma and in the assay on SF-539 CNS was > 100 µM in each case. In addition, the TGI in the assay with KM12 colon, in the assay on SK-MEL-28 melanoma and with ACHN renal was > 100 µM each time.
Turning to `Cc1cc(C)c(S(=O)(=O)N(CCCN)OCCCON(CCCN)S(=O)(=O)c2c(C)cc(C)cc2C)c(C)c1`, the TGI in the assay with MOLT-4 leukemia is 10.7 µM; in the assay on M14 melanoma, 3.21 µM; with NCI-H23 lung, 4.66 µM; in the assay with SR leukemia it was 7.83 µM; with UACC-257 melanoma, 3.44 µM; in the assay with SF-539 CNS it was 3.77 µM. Further, the figures for the TGI with KM12 colon, in the assay with SK-MEL-28 melanoma and in the assay on ACHN renal were 3.79 µM, 3.94 µM and 28.9 µM, respectively.
Regarding `COc1cc(-c2n/c(=C\c3c(O)[nH]c4ccc(Cl)cc34)cc3c2=Nc2ccccc2-3)ccc1F`, the GI50 in the assay with MOLT-4 leukemia is 1080 nM; in the assay on M14 melanoma, 1890 nM; in the assay with NCI-H23 lung, 1730 nM; in the assay on SR leukemia it was 1080 nM; with UACC-257 melanoma, 3.43 µM; in the assay with SF-539 CNS, 2790 nM. Besides, the GI50 with KM12 colon was 2280 nM; with SK-MEL-28 melanoma, 2270 nM; in the assay on ACHN renal, 1850 nM. Besides, the TGI was 3.32 µM with MOLT-4 leukemia; 3.48 µM with M14 melanoma; 3.42 µM in the assay on NCI-H23 lung; 4.76 µM with SR leukemia; 10.9 µM in the assay on UACC-257 melanoma; 9.87 µM in the assay with SF-539 CNS. Moreover, the TGI in the assay with KM12 colon was 5.01 µM; in the assay on SK-MEL-28 melanoma, 5.02 µM; in the assay with ACHN renal it was 3.76 µM.
`C=C1C(OC2O[C@@H]3O[C@@]4(C)CC[C@H]5[C@H](C)CC[C@@H](C2=C)[C@@]35O4)O[C@@H]2O[C@@]3(C)CC[C@H]4[C@H](C)CC[C@@H]1[C@@]24O3` (some centres not stated): the TGI with MOLT-4 leukemia, in the assay with M14 melanoma, in the assay on NCI-H23 lung, in the assay with SR leukemia, in the assay with UACC-257 melanoma and with SF-539 CNS was > 50 µM in each case. Moreover, the TGI in the assay with KM12 colon, in the assay on SK-MEL-28 melanoma and with ACHN renal was > 50 µM throughout.
`NCCCCNCCCNC(=O)c1nc(-c2nc(CCN)sc2Cl)sc1Cl`: the TGI with MOLT-4 leukemia, in the assay on M14 melanoma, with NCI-H23 lung, in the assay with SR leukemia, in the assay with UACC-257 melanoma and in the assay with SF-539 CNS was > 100 µM throughout. Besides, the TGI with KM12 colon, in the assay with SNB-78 CNS, in the assay on SK-MEL-28 melanoma and with ACHN renal was > 100 µM in each case.
With `O=C1C=CC(=O)c2c(O)c(N3CCC[C@H]3CO)c(Cl)c(O)c21`, the TGI in the assay with MOLT-4 leukemia was 1.95 µM; with M14 melanoma, 3.61 µM; in the assay with NCI-H23 lung, 4.61 µM; in the assay on SR leukemia, 1.4 µM; with UACC-257 melanoma it was 1.92 µM; in the assay on SF-539 CNS, > 10 µM. Moreover, the TGI in the assay with KM12 colon is > 6.06 µM; with SK-MEL-28 melanoma, 2.23 µM; in the assay on ACHN renal, 4.53 µM.
As for `CN(C)CCNC(=O)c1cc(Cl)cc2ccc(-c3ccccc3)nc12`, the TGI in the assay on HOP-18 NSCLC is 12.5 µM; in the assay with MOLT-4 leukemia, 2.92 µM; with NCI-H23 lung it was 14.4 µM; with UACC-257 melanoma, 10.8 µM; with SF-539 CNS, 9.18 µM; in the assay on KM12 colon it was 22.2 µM. Moreover, the values for the TGI in the assay on SNB-78 CNS and in the assay on SK-MEL-28 melanoma were 24.9 µM and 16.1 µM, respectively.
As to `COC(=O)Cc1ccc2c(cnn2-c2ccccc2)c1OC`, the TGI in the assay with MOLT-4 leukemia, in the assay with M14 melanoma, with NCI-H23 lung, in the assay with SR leukemia, with UACC-257 melanoma and in the assay with SF-539 CNS was > 10 µM each time. The TGI in the assay on KM12 colon, with SK-MEL-28 melanoma and in the assay with ACHN renal was > 10 µM in each case.
Consider `O=C1NC2CCCCC2N=C1CC(=O)c1ccc(Br)cc1` (configuration not stated), for which the TGI in the assay with MOLT-4 leukemia, in the assay on M14 melanoma, in the assay on NCI-H23 lung, with SR leukemia, in the assay on UACC-257 melanoma and in the assay with SF-539 CNS was > 100 µM each time. Besides, the TGI with KM12 colon, with SK-MEL-28 melanoma and in the assay with ACHN renal was > 100 µM throughout.
Consider `O=S(=O)(O)c1ccc(N=Nc2ccc(N=Nc3ccc(/C=C/c4ccc(N=[N+]([O-])c5ccc(/C=C/c6ccc(N=Nc7ccc(N=Nc8ccc(S(=O)(=O)O)cc8)cc7)cc6S(=O)(=O)O)c(S(=O)(=O)O)c5)cc4S(=O)(=O)O)c(S(=O)(=O)O)c3)cc2)cc1`, for which the TGI with HOP-18 NSCLC, with MOLT-4 leukemia, in the assay on NCI-H23 lung, in the assay with UACC-257 melanoma, in the assay on SF-539 CNS and with KM12 colon was > 100 µM in each case. The TGI with SK-MEL-28 melanoma was > 100 µM.
Take `CN(C)CC1CCC/C(=C\c2ccc(OC(=O)c3ccc(Cl)cc3)cc2)C1=O` (configuration not stated): the TGI was 3.19 µM in the assay with MOLT-4 leukemia; 3.27 µM with M14 melanoma; 3.5 µM in the assay on NCI-H23 lung; > 100 µM in the assay on SR leukemia; 16.7 µM in the assay with UACC-257 melanoma; 5.41 µM in the assay on SF-539 CNS. Further, the TGI with KM12 colon was 5.9 µM; with SK-MEL-28 melanoma, 8.52 µM; with ACHN renal it was 8.44 µM.
Regarding `COc1cc(C(=O)Oc2ccc3c(c2)OCO3)cc(OC)c1OC`, the TGI in the assay with MOLT-4 leukemia, in the assay with M14 melanoma, in the assay on NCI-H23 lung, in the assay on SR leukemia, in the assay on UACC-257 melanoma and in the assay on SF-539 CNS was > 100 µM each time. The TGI in the assay on KM12 colon, with SK-MEL-28 melanoma and with ACHN renal was > 100 µM in each case.
On to `O=C(/C=C/C(=O)N1CCCC1)N1CCCC1`, for which the TGI in the assay on MOLT-4 leukemia, in the assay with M14 melanoma, with NCI-H23 lung, in the assay on SR leukemia, in the assay on UACC-257 melanoma and with SF-539 CNS was > 100 µM in each case. In addition, the TGI in the assay with KM12 colon, with SK-MEL-28 melanoma and in the assay with ACHN renal was > 100 µM throughout.
In the case of `CCOC(=O)C1(C#N)C(c2ccccc2)CC(O)(c2ccc(Cl)cc2)C(C(=O)c2ccc(Cl)cc2)C1c1ccccc1` (configuration not stated), the TGI with HOP-18 NSCLC, in the assay with MOLT-4 leukemia, in the assay with M14 melanoma, in the assay with NCI-H23 lung, with SR leukemia and in the assay with UACC-257 melanoma was > 100 µM in each case. The TGI in the assay on KM12 colon, in the assay on SNB-78 CNS, with SK-MEL-28 melanoma and with ACHN renal was > 100 µM throughout.
Regarding `CO[C@H]1SC[C@H](OC(C)=O)[C@H](OC(C)=O)[C@H]1OC(C)=O`, the TGI in the assay on MOLT-4 leukemia, with M14 melanoma, in the assay on NCI-H23 lung, in the assay on SR leukemia, in the assay on UACC-257 melanoma and in the assay with SF-539 CNS was > 100 µM throughout. For the same compound, the TGI in the assay on KM12 colon, with SK-MEL-28 melanoma and in the assay on ACHN renal was > 100 µM each time.
Regarding `CCCCSc1nsc(N(C(=O)c2ccccc2)C(=O)c2ccccc2)n1`, the TGI is 59.5 µM in the assay on MOLT-4 leukemia; > 100 µM with M14 melanoma; > 100 µM in the assay on NCI-H23 lung; 48.3 µM in the assay on SR leukemia; 74.9 µM in the assay on UACC-257 melanoma; 64.3 µM in the assay on SF-539 CNS. Moreover, the TGI in the assay on KM12 colon, in the assay on SK-MEL-28 melanoma and in the assay with ACHN renal was > 100 µM in each case.
Turning to `O=c1[nH]c2nc3ccccc3nc2[nH]c1=O`, the TGI with MOLT-4 leukemia, in the assay with M14 melanoma, in the assay with NCI-H23 lung, in the assay on SR leukemia, in the assay on UACC-257 melanoma and with SF-539 CNS was > 100 µM throughout. Also, the TGI in the assay with KM12 colon, with SK-MEL-28 melanoma and in the assay on ACHN renal was > 100 µM throughout.
Regarding `CC(C)(C)OC(=O)NC(Cc1ccccc1)NC(=O)NC(=O)OCc1ccccc1` (configuration not stated), the TGI in the assay with MOLT-4 leukemia is > 100 µM; in the assay with M14 melanoma, > 100 µM; in the assay with NCI-H23 lung it was > 100 µM; in the assay with SR leukemia it was > 100 µM; in the assay with UACC-257 melanoma, > 100 µM; in the assay with SF-539 CNS, 60.8 µM. Moreover, the TGI in the assay with KM12 colon, in the assay with SK-MEL-28 melanoma and in the assay with ACHN renal was > 100 µM throughout.
For the compound `Cc1ccc2c(c1)-c1c(C#N)c(N)nc(-c3ccc(Cl)cc3)c1CCS2(=O)=O`, the TGI in the assay on MOLT-4 leukemia was 68.7 µM; in the assay on M14 melanoma it was > 100 µM; in the assay on NCI-H23 lung it was > 100 µM; in the assay on SR leukemia it was 6.18 µM; with UACC-257 melanoma, > 100 µM; with SF-539 CNS it was 37.1 µM. Also, the TGI with KM12 colon, in the assay on SK-MEL-28 melanoma and in the assay with ACHN renal was > 100 µM throughout.
Turning to `Cc1cc(C)nc(NS(=O)(=O)c2ccc(Nc3c4ccccc4nc4c(C(=O)N5CCN(CCOS(C)(=O)=O)CC5)cccc34)cc2)n1`, the TGI with MOLT-4 leukemia, in the assay on M14 melanoma, with NCI-H23 lung, with UACC-257 melanoma, in the assay on SF-539 CNS and in the assay with KM12 colon was > 100 µM each time. For the same compound, the TGI in the assay on SNB-78 CNS, in the assay on SK-MEL-28 melanoma and in the assay with ACHN renal was > 100 µM throughout.
For `COc1ccc2nc(/C(N)=C\C#N)ccc2c1`, the TGI with MOLT-4 leukemia is 88.5 µM; in the assay with M14 melanoma, > 100 µM; with NCI-H23 lung it was > 100 µM; in the assay with SR leukemia, > 100 µM; in the assay with UACC-257 melanoma, > 100 µM; in the assay on SF-539 CNS it was > 100 µM. The TGI in the assay with KM12 colon, with SK-MEL-28 melanoma and with ACHN renal was > 100 µM in each case.
In the case of `CCCCOc1ccc(OCCCCCCCCCC[N+](C)(C)C)cc1`, the TGI in the assay on HOP-18 NSCLC is 13.7 µM; with MOLT-4 leukemia, 3.27 µM; with NCI-H23 lung, 11 µM; in the assay on UACC-257 melanoma it was 17.8 µM; in the assay with SF-539 CNS, 14.3 µM; in the assay with KM12 colon, 2.97 µM. Also, the TGI in the assay on SNB-78 CNS was found to be 9.78 µM; with SK-MEL-28 melanoma, 18 µM.
